# From publication PMC9122897, “SHR1032, a novel STING agonist, stimulates anti-tumor immunity and directly induces AML apoptosis” (Scientific Reports, 2022)
# What was measured:
# [1] = system: MC38 mouse syngeneic colorectal adenocarcinoma; assay: MC38 syngeneic tumor model; assay type: in vivo, C57BL/6 mouse
# Procedure: Figure 3 Robust cytokine induction and antitumor effects in vivo. (a,b) C57BL/6 mice were inoculated with mouse MC38 colon cancer cells in the left flank. When tumor volumes were 100 mm^3, they received intratumoral (IT) dose of 100 µg of SHR1032 on day 1, 5, 8 and 12 or IT dose of 50 µg ADU-S100 on day 1, 5, and 8, or vehicle, respectively. (a) Tumor volume was measured at different time points. Results are shown as mean tumor volume ± sem. (n = 8 animals per group). (b) Mouse bodyweight was measured at different time points. (c–f) C57BL/6 mice were inoculated with mouse MC38 colon cancer cells in the left flank. When tumor volumes were 100 mm^3, they received one IT dose of 100 µg of SHR1032 or 50 µg ADU-S100, or vehicle. (c) IFNβ, (d) IL-6 and (e) TNFα from both tumor and plasma was measured by ELISA 4 h after. (f) SHR1032 compound concentration in tumors were measured.
# Human and Cynomolgous PBMC’s were thawed and spun down in Lymphocyte media (ZENBIO) and resuspended in media to 1.5 x 10^6 cells/ml density. Mouse RAW 264.7 cells were detached from the flask and resuspended in media to 1.5 x 10^6 cells/ml density. Then, 100 µl of media containing the cells was added to each well of a 96-well plate containing compound in 50 µl of media. Plates were incubated for 5 h at 37 °C and supernatant was collected for ELISA analysis. Human and monkey IFN-β protein concentration was measured using human IFN-β Quantikine ELISA Kits (R&D Systems) per manufacture’s protocol. Mouse IFN-β was measured using mouse IFN-β Quantikine ELISA Kits (R&D Systems) per manufacture’s protocol. Mouse TNFα, IFN-β and IL-6 in the tumor lysates and plasma was measured by Quantikine ELISA Kits (R&D Systems) per manufacture’s protocol.
# Female C57BL/6 mice, aged between 8 and 10 weeks old, were purchased from Charles River Lab. MC38 mouse colorectal cancer cells were resuspended as single cell solution in PBS at a concentration of 5 × 10^6 cells/ml. One hundred µl of cell suspension were implanted in the right flank of mice subcutaneously. Tumor size was measured by a caliper in three dimensions and its volume was then calculated according to the following formula: Tumor Volume (mm^3) = l * w * h * 0.5236, where l = length, w = width and h = height in mm for a tumor. When the average tumor volume reached around 100 mm^3, the mice were randomly assigned into three groups (n = 8) and each group of mice received one regimen. This day was assigned as day 0 for the study. […] Tumor volume and body weight were measured 3 times per week throughout the study. […] Cytokines and SHR1032 concentration in the plasma and tumor tissues were analyzed. […]
# THP1-STING-R232 cells = assay: Western blot of TBK1 phosphorylation; assay type: cell-based, human; details: 10 µM SHR1032 vs 40 µM ADU-S100
# Procedure: Figure 2 SHR1032 specifically and potently activates STING signaling pathway. IRF luciferase reporter assays in (a) THP1-STING-R232, THP1-STING-H232, THP1-STING-HAQ, and THP1-STING-KO cells. Cells were stimulated for 24 h with the indicated STING compounds and assessed for luciferase activity. IFNβ production and activation of cGAS-STING signaling pathway in (b) human THP1-STING-R232, human PBMCs from a donor homozygous for the R232 variant, cynomolgus PBMC, and mouse RAW164.7 macrophage cells were treated with STING agonists for 5 h. IFNβ in media was quantified by human or mouse ELISA kits respectively. (c) THP1-STING-R232 cells and mouse RAW164.7 macrophage cells were stimulated with 40 µM of ADU-S100 or 10 µM of SHR1032 for the indicated time points. The amount of pTBK1, total TBK1, STING and α-tubulin was measured by western blotting.
# THP1 reporter cells were treated for 24 h with a total of 100 k cells and 150 ul media in each well a 96-well plate. […] Luminescence signal was measured using Tecan infinite M1000. EC50 values were calculated using non-linear regression analysis of GraphPad Prism. Cell growth was monitored by CellTiter-Glo Luminescent Cell Viability Assay (Promega) per manufacture’s protocol. GI50 values were calculated using non-linear regression analysis of GraphPad Prism. […]
structure (smiles),measurement,setting,value
CCn1nc(C)cc1C(=O)Nc1nc2cc(C(N)=O)cc(OC)c2n1CCC[C@H]1COc2cc(C(N)=O)cc3nc(NC(=O)c4cc(C)nn4CC)n1c23 [SHR1032],tumor growth inhibition,"[1]; 100 µg intratumorally on day 1, 5, 8 and 12, compared to the control group",78%
same,mouse pharmacokinetic properties,"[1]; intratumoral, mouse",favorable mouse pharmacokinetic properties
same,"IFNβ, IL-6 and TNFα induction in tumor and plasma","[1]; one IT dose of 100 µg, 4 h post dosing, ELISA",induced all the three cytokines in both tumors and plasma
same,TBK1 phosphorylation,THP1-STING-R232 cells,higher level of TBK1 phosphorylation than ADU-S100
